± gives the expanded uncertainty stated by the source.
Details: Liquid, Pendant drop shape

CCCCCCCCCCCCCCCC [hexadecane] + O=C=O
Details | interfacial tension [mN/m]
323.15 K, 1030 kPa | 21.5 ± 1
323.15 K, 2050 kPa | 19.61 ± 1
323.15 K, 2960 kPa | 17.95 ± 1
323.15 K, 4010 kPa | 15.94 ± 1
323.15 K, 5020 kPa | 14.12 ± 1
323.15 K, 5960 kPa | 12.43 ± 1
323.15 K, 7000 kPa | 10.52 ± 1
323.15 K, 8020 kPa | 8.71 ± 1
323.15 K, 8960 kPa | 6.98 ± 1
323.15 K, 9040 kPa | 7.5 ± 1
323.15 K, 10020 kPa | 5.02 ± 1
353.15 K, 1200 kPa | 18.68 ± 1
353.15 K, 2100 kPa | 17.48 ± 1
353.15 K, 3200 kPa | 16.05 ± 1
353.15 K, 4040 kPa | 14.99 ± 1
353.15 K, 5120 kPa | 13.67 ± 1
353.15 K, 6110 kPa | 12.5 ± 1
353.15 K, 7090 kPa | 11.37 ± 1
353.15 K, 8090 kPa | 10.25 ± 1
353.15 K, 8990 kPa | 9.28 ± 1
353.15 K, 10050 kPa | 8.1 ± 1
353.15 K, 11120 kPa | 7.11 ± 1
353.15 K, 12010 kPa | 6.12 ± 1

CCCCCCCCCCCCCCCCCC [octadecane] + O=C=O
interfacial tension [mN/m]
Details | 323.15 K | 353.15 K
400 kPa | – | 20.05 ± 1
410 kPa | 23.35 ± 1 | –
1100 kPa | – | 19.16 ± 1
1300 kPa | 21.23 ± 1 | –
2000 kPa | 18.53 ± 1 | –
2200 kPa | – | 17.73 ± 1
2670 kPa | 17.13 ± 1 | –
3200 kPa | 15.63 ± 1 | –
3300 kPa | – | 16.22 ± 1
4000 kPa | 14.12 ± 1 | –
4180 kPa | – | 15.13 ± 1
5100 kPa | 11.94 ± 1 | –
5300 kPa | – | 13.86 ± 1
6150 kPa | – | 12.92 ± 1
6250 kPa | 9.84 ± 1 | –
7000 kPa | 8.65 ± 1 | –
7200 kPa | – | 11.8 ± 1
8100 kPa | – | 10.68 ± 1
8150 kPa | 5.07 ± 1 | –
9100 kPa | 3.15 ± 1 | –
9300 kPa | – | 9.66 ± 1
10100 kPa | 1.83 ± 1 | 8.87 ± 1
11100 kPa | – | 7.66 ± 1
12100 kPa | – | 6.63 ± 1
13000 kPa | – | 5.74 ± 1
14000 kPa | – | 4.91 ± 1
15000 kPa | – | 4.05 ± 1
16300 kPa | – | 3.08 ± 1
17400 kPa | – | 2.49 ± 1

CCCCCCCCCCCCCCCCCCCC [eicosane] + O=C=O
353.15 K
Details | interfacial tension [mN/m]
1000 kPa | 20.35 ± 1
2000 kPa | 18.99 ± 1
4000 kPa | 16.13 ± 1
6000 kPa | 13.37 ± 1
8000 kPa | 10.34 ± 1
10000 kPa | 7.85 ± 1
12000 kPa | 5.55 ± 1
14000 kPa | 3.71 ± 1
16000 kPa | 2.38 ± 1

CCCCCCCCCCCC [dodecane] + O=C=O
interfacial tension [mN/m]
Details | 323.15 K | 353.15 K
1100 kPa | 19.27 ± 1 | 16.94 ± 1
2100 kPa | 17.29 ± 1 | 16.02 ± 1
3100 kPa | – | 14.66 ± 1
3600 kPa | 14.47 ± 1 | –
4100 kPa | 13.55 ± 1 | 13.4 ± 1
5100 kPa | – | 11.99 ± 1
6100 kPa | 9.51 ± 1 | 10.69 ± 1
7100 kPa | 7.68 ± 1 | 9.44 ± 1
8100 kPa | 5.57 ± 1 | 8.32 ± 1
9100 kPa | – | 6.96 ± 1
10100 kPa | – | 5.88 ± 1
11100 kPa | – | 4.8 ± 1

CCCCCCCCCC [decane] + O=C=O
interfacial tension [mN/m]
Details | 323.15 K | 353.15 K
900 kPa | 18.82 ± 1 | –
1200 kPa | – | 16.45 ± 1
2100 kPa | 16.35 ± 1 | 15.25 ± 1
2990 kPa | 14.77 ± 1 | –
3020 kPa | – | 14.07 ± 1
4100 kPa | 12.56 ± 1 | 12.52 ± 1
5100 kPa | – | 11.28 ± 1
6100 kPa | 8.43 ± 1 | 9.86 ± 1
7100 kPa | 6.85 ± 1 | –
7110 kPa | – | 8.6 ± 1
8100 kPa | 4.89 ± 1 | 7.85 ± 1
9100 kPa | – | 5.91 ± 1
10100 kPa | – | 4.65 ± 1

CCCCCCCCCCCCCCCCCCC [nonadecane] + O=C=O
interfacial tension [mN/m]
Details | 323.15 K | 353.15 K
1100 kPa | – | 19.52 ± 1
2060 kPa | – | 18.23 ± 1
2400 kPa | 20.57 ± 1 | –
3100 kPa | – | 16.88 ± 1
3200 kPa | 18.91 ± 1 | –
4140 kPa | – | 15.58 ± 1
4200 kPa | 17.25 ± 1 | –
5050 kPa | 15.27 ± 1 | –
5140 kPa | – | 14.35 ± 1
6060 kPa | – | 13.27 ± 1
6150 kPa | 12.93 ± 1 | –
7100 kPa | 11.35 ± 1 | –
7120 kPa | – | 12.06 ± 1
8050 kPa | – | 11.03 ± 1
8200 kPa | 9.61 ± 1 | –
9200 kPa | 7.78 ± 1 | 9.76 ± 1
10000 kPa | 6.39 ± 1 | –
10020 kPa | – | 8.94 ± 1
11100 kPa | – | 7.87 ± 1
12000 kPa | – | 7 ± 1
13070 kPa | – | 5.97 ± 1
14040 kPa | – | 5.08 ± 1

CCCCCCCCCCCCCCCCC [heptadecane] + O=C=O
interfacial tension [mN/m]
Details | 323.15 K | 353.15 K
1100 kPa | – | 18.47 ± 1
1200 kPa | 20.95 ± 1 | –
2100 kPa | – | 17.15 ± 1
2600 kPa | 18.3 ± 1 | –
3300 kPa | 16.99 ± 1 | 15.48 ± 1
4100 kPa | 15.49 ± 1 | 14.62 ± 1
5100 kPa | 13.95 ± 1 | –
5200 kPa | – | 13.38 ± 1
6100 kPa | 11.78 ± 1 | –
6720 kPa | – | 11.71 ± 1
7100 kPa | – | 11.26 ± 1
7300 kPa | 9.69 ± 1 | –
8120 kPa | 8.52 ± 1 | –
8150 kPa | – | 10.09 ± 1
9300 kPa | – | 9.14 ± 1
10100 kPa | 5.08 ± 1 | –
10600 kPa | – | 7.78 ± 1
12600 kPa | – | 5.78 ± 1
14100 kPa | – | 4.3 ± 1
15100 kPa | – | 3.57 ± 1
16200 kPa | – | 2.81 ± 1

CCCCCCCCCCCCC [tridecane] + O=C=O
interfacial tension [mN/m]
Details | 323.15 K | 353.15 K
1100 kPa | 20 ± 1 | –
1500 kPa | – | 17.72 ± 1
2100 kPa | 18.27 ± 1 | –
2600 kPa | – | 16.09 ± 1
4100 kPa | 14.42 ± 1 | 14.09 ± 1
5100 kPa | 12.93 ± 1 | 12.85 ± 1
6100 kPa | 11.47 ± 1 | 12.02 ± 1
7100 kPa | 9.42 ± 1 | 10.41 ± 1
8100 kPa | – | 9.58 ± 1
8600 kPa | 6.83 ± 1 | –
9100 kPa | – | 8.18 ± 1
9600 kPa | 4.91 ± 1 | –
10100 kPa | – | 7.07 ± 1
10600 kPa | 2.83 ± 1 | –
11100 kPa | – | 6.1 ± 1
12100 kPa | – | 4.84 ± 1
13100 kPa | – | 3.89 ± 1
14100 kPa | – | 3.14 ± 1
15100 kPa | – | 2.21 ± 1
16100 kPa | – | 1.68 ± 1
17100 kPa | – | 1.14 ± 1

CCCCCCCCCCCCCC [tetradecane] + O=C=O
interfacial tension [mN/m]
Details | 323.15 K | 353.15 K
1050 kPa | 20.79 ± 1 | –
1200 kPa | – | 18.19 ± 1
2100 kPa | – | 17.01 ± 1
2110 kPa | 18.89 ± 1 | –
3050 kPa | 17.05 ± 1 | –
3200 kPa | – | 15.62 ± 1
3950 kPa | 15.41 ± 1 | –
4040 kPa | – | 14.48 ± 1
5020 kPa | 13.51 ± 1 | –
5120 kPa | – | 13.21 ± 1
5960 kPa | 11.59 ± 1 | –
6110 kPa | – | 12.2 ± 1
7030 kPa | 9.79 ± 1 | –
7090 kPa | – | 10.94 ± 1
8000 kPa | 8.27 ± 1 | –
8090 kPa | – | 9.9 ± 1
8940 kPa | 6.5 ± 1 | –
9020 kPa | 6.35 ± 1 | –
10050 kPa | 3.98 ± 1 | 7.61 ± 1
11120 kPa | – | 6.5 ± 1
12010 kPa | – | 5.5 ± 1

CCCCCCCCCCC [undecane] + O=C=O
interfacial tension [mN/m]
Details | 323.15 K | 353.15 K
1030 kPa | 19.26 ± 1 | –
1100 kPa | – | 17.09 ± 1
2100 kPa | 17.25 ± 1 | 15.83 ± 1
3100 kPa | 15.05 ± 1 | 14.38 ± 1
4100 kPa | 13.12 ± 1 | 13.17 ± 1
5100 kPa | 10.98 ± 1 | 11.69 ± 1
6100 kPa | 8.68 ± 1 | 10.45 ± 1
7100 kPa | 7.2 ± 1 | 9.31 ± 1
8100 kPa | 4.95 ± 1 | 7.45 ± 1
9100 kPa | – | 6.45 ± 1
10100 kPa | – | 5.59 ± 1
11100 kPa | – | 4.37 ± 1
12100 kPa | – | 3.39 ± 1

CCCCCCCCCCCCCCC [pentadecane] + O=C=O
interfacial tension [mN/m]
Details | 323.15 K | 353.15 K
1050 kPa | 21.31 ± 1 | –
1500 kPa | – | 18.19 ± 1
2100 kPa | – | 17.27 ± 1
2130 kPa | 19.32 ± 1 | –
3100 kPa | 17.53 ± 1 | 16.23 ± 1
4050 kPa | 15.63 ± 1 | –
4200 kPa | – | 14.66 ± 1
5130 kPa | 13.49 ± 1 | –
5400 kPa | – | 13.29 ± 1
6100 kPa | 11.98 ± 1 | 12.36 ± 1
7100 kPa | 10.16 ± 1 | –
7900 kPa | – | 10.2 ± 1
8100 kPa | 8.46 ± 1 | –
8900 kPa | – | 8.9 ± 1
9000 kPa | 6.66 ± 1 | –
9600 kPa | 5.32 ± 1 | –
10000 kPa | – | 7.87 ± 1
10100 kPa | 4.72 ± 1 | –
11100 kPa | – | 6.78 ± 1
12100 kPa | – | 5.82 ± 1
13100 kPa | – | 4.66 ± 1
14100 kPa | – | 3.75 ± 1
15100 kPa | – | 3.06 ± 1

Reference: the NIST ThermoML archive (doi:10.1021/acs.jced.7b00159)
